# Laboratory results from patent US11584928B2, “Methods for generating barcoded combinatorial libraries” (The Regents of the University of Colorado, priority 2016, dated 2023).
# Test system: galK
# Assay: galK editing with MAD2 or MAD7 nuclease and various guide nucleic acid scaffolds, white/red screening
# Type: cell-based, E. coli
# Details: guide sequence targeting galK
# Source text: MAD2 and MAD7 nucleases are nucleic acid-guided nuclease that can be used in the methods disclosed herein. Nucleases Mad2 (SEQ ID NO: 2) and Mad 7 (SEQ ID NO: 7) were cloned and transformed into cells. Editing cassettes designed to mutate a target site in a galK gene were designed with mutations, which allowed for white/red screening of successfully editing colonies. The editing cassettes also encoded a guide nucleic acid designed to target galK. The editing cassettes were transformed into E. coli cells expressing MAD2, MAD7, or Cas9. […] In this example, the guide nucleic acid used with MAD2 and MAD7 comprised a scaffold-12 sequence and a guide sequence targeting galK. The guide nucleic acid used with Cas9 comprised a sequence compatible with the S. pyogenes Cas9.
# (§1) FIG. 32 and Table 3 show more examples of gene editing using the MAD2 nuclease. In this experiment, different guide nucleic acid sequences were tested. The guide sequence of the guide nucleic acids targeted the galK gene as described above. The scaffold sequence of the guide nucleic acids were one of various sequences tested as indicated.
# as §1, with “33” for “32”, “4” for “3”, “MAD7” for “MAD2”, “indicated. […] Table 3 and Table 4 also provided the designed mutations in the editing cassettes that were used to mutate the galK target gene.” for “indicated.”
Substance,formation of functional complexes with MAD2,formation of functional complexes with MAD7
"scaffold-5: guide nucleic acid scaffold sequence, SEQ ID NO: 88 (guide CCGTCTAAAACTCATTCAGAATTTCTACTAGTGTAGAT; chemistry not given here)",able to form functional complexes,–
"scaffold-10: guide nucleic acid scaffold sequence, SEQ ID NO: 93 (guide CTCTACAACTGATAAAGAATTTCTACTTTTGTAGAT; chemistry not given here)",able to form functional complexes,able to form functional complexes
"scaffold-11: guide nucleic acid scaffold sequence, SEQ ID NO: 94 (guide GTCTGGCCCCAAATTTTAATTTCTACTGTTGTAGAT; chemistry not given here)",able to form functional complexes,able to form functional complexes
"scaffold-12: guide nucleic acid scaffold sequence, SEQ ID NO: 95 (guide GTCAAAAGACCTTTTTAATTTCTACTCTTGTAGAT; chemistry not given here)",able to form functional complexes,able to form functional complexes
